Experimental data: patent US11260072B2, “MicroRNA-based methods and assays for osteocarcinoma” (3-D Matrix, Ltd., priority 2011, dated 2022)
d = 2'-deoxy (DNA); r = 2'-OH (RNA)

What was measured:
[1] = tested on: 143B-luc; assay: spontaneous lung metastasis model of osteosarcoma (143B-luc implanted orthotopically into tibia); format: in vivo, athymic nude mice
Method: (§1) Tumor transplantation experiments. Animal experiments were performed in compliance with the guidelines of the Institute for Laboratory Animal Research, National Cancer Center Research Institute. Athymic nude mice or NOD/SCID mice (CLEA Japan) were purchased at 4 weeks of age and given at least 1 week to adapt to their new environment prior to tumor transplantation. On day 0, mice were anesthetized with 3% isoflurane and the right leg disinfected with 70% ethanol. Cells were aspirated into a 1 mL tuberculin syringe fitted with a 27-G needle. The needle was inserted through the cortex of the anterior tuberosity of the tibia with a rotating movement to avoid cortical fracture. Once the bone was traversed, the needle was inserted further to fracture the posterior cortex of the tibia. A 100 μL volume of solution containing freshly isolated CD133^high and CD133^low HOS-Luc (10^2, 10^3, 10^4, 10^5 cells per site) or 143B-Luc (1.5×10^6) was injected while slowly moving back the needle.
Monitoring tumor growth, lung metastasis, and toxicity with/without LAN-anti-miR-133a. For the assessment of tumorigenicity between CD133^high and CD133^low HOS-Luc cells, NOD/SCID mice were injected with D-luciferin (150 mg/kg, Promega) by intraperitoneal injection. Ten minutes later, photons from firefly luciferase were counted using the IVIS imaging system (Xenogen Corp.) according to the manufacturer's instructions. Each experimental condition included 5 animals per group and monitoring once a week. For the evaluation of LNA-anti-miR-133a administration into spontaneous lung metastasis of osteosarcoma model mice, individual mice were injected with 10 mg/kg of LNA-anti-miR-133a or saline via the tail vain. LNA were injected on following days 4, 11, 18, 25, 32 postinoculation of 143B-Luc cells. Each experimental condition included 10 animals per group. The development of subsequent lung metastasis was monitored once a week in vivo by the bioluminescent imaging described above for 5 weeks. All data were analyzed using LivingImage software (version 2.50, Xenogen). On day 36, the primary tumor and lung in 5 mice of each group were resected at necropsy for their weight, bioluminescent, and histological analyses. The blood examination, weight of whole body as well as heart, liver, and skeletal muscle, and histopathological examination were performed for the assessment of toxicity.
To extend the in vitro findings and to determine whether silencing of miR-133a could be an effective therapeutic option for osteosarcoma treatment, the effect of LNA-133a on a spontaneous lung metastasis model of osteosarcoma was examined. Experimentally, 1.5×10^6 cells of 143B transfected with firefly luciferase gene (143B-luc) were implanted orthotopically into the right proximal tibia of athymic nude mice. The implanted tumor growth and the presence of distant metastases were analyzed weekly for luciferase bioluminescence using an in vivo imaging system (IVIS). […] To assess the efficacy of the new treatment protocol, results were compared with three control groups (n=10 each): a saline control group, an LNA group, and a CDDP group. At 5 weeks, half the mice in each group were euthanized for further analysis; the remaining mice were monitored for survival.

[2] = tested on: 143B cells; assay: qRT-PCR of miRNAs and CD133 mRNA in drug-treated 143B cells; format: cell-based, human; details: for CD133 mRNA expression: 143B cells; for expression of miR-1, miR-10b, and miR-133a: 3 days treatment, relative to untreated 143B cells
Source text: (§2) RNA isolation and quantitative real-time RT-PCR of mRNAs and miRNAs. Total RNA was purified from cells and tumor tissues with an RNeasy Mini Kit and RNase-Free DNase Set (QIAGEN). For quantitative polymerase chain reaction (qPCR) of mRNAs, cDNA was synthesized using High-Capacity cDNA Reverse Transcription Kit (Applied Biosystems). For each qPCR reaction, equal amounts of cDNA were mixed with Platinum SYBER Green qPCR SuperMix (Invitrogen) and specific primers (Table 1). Gene expression levels were normalized by beta actin (ACTB) or glyceraldehyde 3-phosphate dehydrogenase (GAPDH). For qPCR of miRNAs, miRNA was converted to cDNA using the TaqMan MicroRNA Reverse Transcription Kit (Applied Biosystems). RNU6B small nuclear RNA was amplified as an internal control. qPCR was performed using each miRNA-specific probe included with the TaqMan MicroRNA Assay on a Real-Time PCR System 7300 and SDS software (Applied Biosystems).
In addition, the expression of miR-133a was enhanced by cisplatin in CD133^low HOS cells. […] CDDP-treated CD133^low HOS cells could form tumors with as few as 100 cells per injection, whereas the untreated CD133^low HOS cells could not (FIG. 23 and Table 9). […] Therefore, we reasoned that silencing of miR-133a before or during chemotherapy would prevent the increase of the expression of miR-133a, which enhanced TIC phenotypes and was induced by chemotherapeutics.

[3] = tested on: CD133^low HOS cells; assay: miR-133a expression in cisplatin-treated CD133low HOS cells; format: cell-based, human
Source text: as §2

[4] = tested on: CD133^low HOS-luc cells; assay: tumorigenicity of CDDP-treated CD133low HOS-luc cells in mice; format: in vivo
Method: as §1, with “A 100 μL volume of solution containing freshly isolated CD133^high and CD133^low HOS-Luc (10^2, 10^3, 10^4, 10^5 cells per site) or 143B-Luc (1.5×10^6) was injected while slowly moving back the needle.” left out
Monitoring tumor growth, lung metastasis, and toxicity with/without LAN-anti-miR-133a. […] Ten minutes later, photons from firefly luciferase were counted using the IVIS imaging system (Xenogen Corp.) according to the manufacturer's instructions. […] The development of subsequent lung metastasis was monitored once a week in vivo by the bioluminescent imaging described above for 5 weeks. All data were analyzed using LivingImage software (version 2.50, Xenogen). […]

[5] = tested on: CD133^low SaOS2 cells; assay: siRNA knockdown, cell growth in the presence of cisplatin; format: cell-based, human; details: siRNA 100 nM, 72 h after transfection
Method: (§3) Transfection with synthetic miRNAs, LNAs, and siRNAs. Synthetic hsa-miRs (Pre-miR-hsa-miR-1, -10b, -133a, and negative control (NC; Applied Biosystems, Table 2) and locked nucleic acids (LNAs) (LNA-1, -10b, -133a, and negative control, Exiqon, Table 3) were transfected into each type of cells at 30 nM each (final concentration) using DharmaFECT 1(GE Healthcare). Synthetic siRNAs (Bonac corporation, Table 4) were transfected into each type of cells at 100 nM each (final concentration) using DharmaFECT 1 (GE Healthcare). After 24 hours of incubation, cells were treated with chemotherapeutic agents for cytotoxicity assay or reseeded into invasion chambers for invasion assay.
(§4) Next, the expression of these molecules was reduced using siRNA-induced gene knockdown system to investigate whether these candidates are functionally important targets of miR-133a in osteosarcoma cells.

[6] = tested on: CD133^low SaOS2 cells; assay: siRNA knockdown, invasion assay; format: cell-based, human; details: siRNA 100 nM, 72 h after transfection
Method: Invasion assay. Invasion assays were performed by using 24-well BD BioCoat Invasion Chambers with Matrigel (Becton-Dickinson). 1×10^5 cells, suspended in 500 μL DMEM or RPMI 1640 medium without FBS, were added to the upper chamber, and DMEM or RPMI 1640 medium with 10% FBS was added to the lower chamber. After incubation for 24 h or 36 h, the cells on the upper surface of the filter were completely removed by wiping them with cotton swabs. The filters were fixed in methanol and stained with 1% toluidine blue in 1% sodium tetraborate (Sysmex). Filters were then mounted onto slides, and cells on lower surfaces were counted. Each assay was performed in triplicate.
as §3, §4

[7] = tested on: miR-1; assay: knock-down of miR-1 in LNA-transfected CD133high SaOS2 cells; format: cell-based, human
Source text: as §2
(§5) Transfection with synthetic miRNAs, LNAs, and siRNAs. […]

[8] = tested on: miR-10b; assay: knock-down of miR-10b in LNA-transfected CD133high SaOS2 cells; format: cell-based, human
Source text: as §2, §5

N.N.[Cl][Pt][Cl] [CDDP, cis-diamtninedichloroplatinum (II)]
Luminescence of lung (mean) ([1]; IVIS bioluminescence): 2855 | tumor growth ([1]; compared to the other groups, LNA-133a 10 mg kg-1 i.v., CDDP 2 mg kg-1 i.p.): No significant differences in tumor growth | Lung metastasis (mice with metastasis / mice in group) ([1]; day 35): 8/10 | Tumor weight (mean) ([1]; day 36, LNA-133a 10 mg kg-1 i.v., CDDP i.p.): 3.957 g | CD133 mRNA expression [2]: induction | CD133 mRNA expression ([2]; listed as cisplatin): induced | expression of miR-1, miR-10b, and miR-133a [2]: increased level | expression of miR-133a [3]: enhanced | Tumor Incidence ([4]; 100 cells per injection, cells treated with CDDP): 5/5 | in vivo tumorigenicity of CD133low HOS population ([4]; mouse, in vivo): increased in vivo tumorigenicity

COc1cccc2c1C(=O)c1c(O)c3c(c(O)c1C2=O)C[C@@](O)(C(=O)CO)C[C@@H]3O[C@H]1C[C@H](N)[C@H](O)[C@H](C)O1 [DOX, doxorubicin]
CD133 mRNA expression [2]: induction | expression of miR-1, miR-10b, and miR-133a [2]: increased level

ANXA2: synthetic siRNA against ANXA2 (Bonac corporation), Table 4 (sense UGACCAAGAUGCUCGGGAUTT; antisense AUCCCGAGCAUCUUGGUCATT; sugars from the 5' end r19 d2, backbone not given here)
drug resistance after knockdown [5]: enhanced drug resistance | invasiveness after knockdown [6]: enhanced invasiveness

DUSP11: synthetic siRNA against DUSP11 (Bonac corporation), Table 4 (sense CCAGAGGAUUUGCCAGAAATT; antisense UGUGUCUCGGAUUAGGAAGTT; sugars from the 5' end r19 d2, backbone not given here)
drug resistance after knockdown [5]: enhanced drug resistance | invasiveness after knockdown [6]: enhanced invasiveness

LNA-1: locked nucleic acid antisense to hsa-miR-1-2, 5′-ACATACTTCTTTACATTCCA-3′ (Exiqon) (LNA-modified (Exiqon), pattern not given here)
miR-1 expression [7]: knock-down

LNA-10b: locked nucleic acid antisense to hsa-miR-10b, 5′-ACAAATTCGGTTCTACAGGGT-3′ (Exiqon) (LNA-modified (Exiqon), pattern not given here)
miR-10b expression [8]: knock-down

MAST4: synthetic siRNA against MAST4 (Bonac corporation), Table 4 (sense GGAGGUACCUUCUUCCAAATT; antisense UAUCAAACUUCCUCUUCUGTT; sugars from the 5' end r19 d2, backbone not given here)
drug resistance after knockdown [5]: enhanced drug resistance

ROD1: synthetic siRNA against ROD1 (Bonac corporation), Table 4 (sense GGGAAUGACAGCAAGAAAUTT; antisense AUUUCUUGCUGUCAUUCCCTT; sugars from the 5' end r19 d2, backbone not given here)
drug resistance after knockdown [5]: enhanced drug resistance

SGMS2: synthetic siRNA against SGMS2 (Bonac corporation), Table 4 (sense CCACUAGAGUGGUGGAAAATT; antisense UUUUCCACCACUCUAGUGGTT; sugars from the 5' end r19 d2, backbone not given here)
invasiveness after knockdown [6]: enhanced invasiveness

SNX30: synthetic siRNA against SNX30 (Bonac corporation), Table 4 (sense CCGAGAAGUUUGUGGUAAATT; antisense UUUACCACAAACUUCUCGGTT; sugars from the 5' end r19 d2, backbone not given here)
invasiveness after knockdown [6]: enhanced invasiveness

UBA2: synthetic siRNA against UBA2 (Bonac corporation), Table 4 (sense GGACUGGGCUGAAGUACAATT; antisense UUGUACUUCAGCCCAGUCCTT; sugars from the 5' end r19 d2, backbone not given here)
invasiveness after knockdown [6]: enhanced invasiveness
